Series [1] has as its system A549 cells. The experiment in a line: MTT cytotoxicity assay on A549 cells. The format is cell-based, human. The settings on record: mean ± SD, n = 3, read-out: IC50, cytotoxicity against A549 cells. From the text: (§1) The purity of the tested compounds was more than 98%. The cytotoxic effects of isolated phenanthrenes on A549 and BEAS-2B cells were examined by MTT experiments as described in our previous report.
(Tetrazolium dyes change colour on reduction, which living cells bring about.)

Series [2] in a line: MTT cytotoxicity assay on BEAS-2B cells. In kind it is cell-based. The settings on record: BEAS-2B cells (normal human lung cells), BEAS-2B normal human lung cells, read-out: IC50, cytotoxic effect on BEAS-2B cells.
Text: as §1

The test system of series [3] is A549 cells. In words: EdU proliferation experiment. The note with it: 48 h, control 100%. The format is cell-based, human. The procedure: The cells were digested by trypsin and cultivated in 96-well plates (3.5 × 10^3 cells per well) for 24 h. They were incubated with compound 1 (3.13, 6.25, and 12.5 μM) for 48 h. Next, prepared EdU-labeling solution (10 µM) was used to stain the cells in an incubator at 37 °C for 2 h. The cells were fixed for 15 min with 4% cold paraformaldehyde. After that, Triton X-100 (0.3%) and Click-iT reaction cocktail were successively used to handle cells. Finally, DAPI staining was applied to the cells to counterstain them. A Leica DMI3000B inverted fluorescence microscope (Leica, Wetzlar, Germany) was used to capture the fluorescent images. In addition, to count the cells, ImageJ software (version 1.8.0) (National Institutes of Health, Bethesda, MD, USA) was used. EdU positive cells (%) = (green EdU-stained cells/blue DAPI-stained cells) × 100.

For series [4], the system named is A549 cells. In words: Cell cycle analysis by flow cytometry. In kind it is cell-based, human. The settings on record: 48 h; for percentage of G0/G1 phase cells / percentage of S phase cells: Figure 3C; for percentage of G2/M phase cells: untreated control 7.41 ± 0.79%. The procedure: According to the manufacture’s instructions, the cells were treated with compound 1 (3.13, 6.25, and 12.5 μM) for 48 h. Then, they were cultured with 500 μL staining solution (RNase A:PI = 1:9) for 1 h at room temperature without light after fixation with 70% pre-chilled ethanol for 2 h. The DNA content was instantly detected with a BD FACSCanto II flow cytometer (BD Biosciences, Franklin Lakes, NJ, USA).
Background: In flow cytometry, cells or beads pass a laser one at a time.

Series [5] concerns A549 cells. In words: Wound healing assay. In kind it is cell-based, human. The note with it: 24 h, control 56.46 ± 4.46%. The procedure:
Cells were placed in 6-well plates for the wound healing test. The scratches were formed using a sterile 200-µL pipette tip when the cells treated with compound 1 (3.13, 6.25, and 12.5 μM) had grown to 90% confluence. After a 24-h incubation, the images were obtained with the Leica microscope and the scratch area was calculated with the ImageJ.

The subject of series [6] is A549 cells. The experiment in a line: Transwell migration assay. In kind it is cell-based, human. The settings on record: 24 h, control 100%. The method, then: The migratory effect of compound 1 (3.13, 6.25, and 12.5 μM) on A549 cells was further detected by using transwell chambers. Briefly, the cells treated with compound 1 were placed into the upper wells, while the medium with 10% FBS was added to the bottom wells. After a 24-h incubation, non-migrated cells were cleaned up, and the migrated cells were fixed for 30 min with 4% paraformaldehyde and dyed by 0.1% crystal violet. The images and the cell numbers were obtained by the Leica microscope and ImageJ, respectively.

For series [7], the system named is A549 cells. The experiment in a line: Apoptosis by flow cytometry (Annexin V/PI). In kind it is cell-based, human. The note with it: 48-h treatment, control 1.21 ± 0.37%. The procedure:
Quadrants 2 (Annexin V+/PI+) and 3 (Annexin V+/PI−) pointed to the percentage of apoptotic cells. As for the control group, the apoptosis rate was only 1.21 ± 0.37%. […] The data disclosed that compound 1 greatly promoted the apoptosis of A549 cells, especially in the high-concentration group (12.5 µM).
The A549 cells were treated with compound 1 (3.13, 6.25, and 12.5 μM), and the cell apoptosis was detected by flow cytometry assay as described in our previous report.

The test system of a further series is Akt. The experiment in a line: Western blot, Akt phosphorylation in A549 cells. The format is cell-based, human. The note with it: A549, 3.13, 6.25, and 12.5 µM, 48 h; p < 0.05 at 3.13 μM, p < 0.01 at 6.25 and 12.5 μM vs control. The procedure:
(§2) SDS–PAGE and PVDF membranes were used to separate and transfer the protein, respectively. […] The membranes were washed with TBST and incubated with an HRP-conjugated secondary antibody for 1 h at 37 °C. Finally, the protein bands were detected with a Tanon 5200 chemiluminescent imaging system (Tanon, Shanghai, China).
For orientation: In western blotting, separated proteins are transferred to a membrane and probed.

In the next series the test system is MEK1/2. The experiment in a line: Western blot, MEK1/2 phosphorylation in A549 cells. In kind it is cell-based, human. The settings on record: A549, 3.13, 6.25, and 12.5 μM, 48 h; p < 0.01 vs control. The method, then: as §2
Another series concerns ERK1/2. The experiment in a line: Western blot, ERK1/2 phosphorylation in A549 cells. In kind it is cell-based, human. The note with it: A549, 3.13, 6.25, and 12.5 µM, 48 h; p < 0.05 at 3.13 μM, p < 0.01 at 6.25 and 12.5 μM vs control. The procedure:
as §2

A further series relates to Bcl-2. The experiment in a line: Western blot, Bcl-2 expression in A549 cells. In kind it is cell-based, human. The settings on record: A549, 3.13, 6.25, and 12.5 μM, 48 h; p < 0.01 vs control. The procedure: as §2
For another series, the system named is Bax. The experiment in a line: Western blot, Bax expression in A549 cells. The format is cell-based, human. The note with it: A549, 6.25 and 12.5 μM, 48 h; p < 0.01 vs control. The procedure:
as §2

These results are taken from article PMC9181924, “Antiproliferative and Proapoptotic Effects of Phenanthrene Derivatives Isolated from Bletilla striata on A549 Lung Cancer Cells” (Molecules, 2022).

Each structure is given as a SMILES string. Several values for one entry are separate records, joined by “and”; a condition that tells them apart may be missing. Equal entries are not always repeated. Where two headings read alike, the source gives them in different places.

One may read the IC50 as the midpoint of a concentration-inhibition curve.

For the compound `COc1cc(O)cc2c1-c1ccc(O)c(-c3c(O)cc(OC)c4c3CCc3cc(O)ccc3-4)c1CC2` [Compound 1, 4,5′-dimethoxy-9,9′,10,10′-tetrahydro-[1,1′-biphenanthrene]-2,2′,7,7′-tetraol], the IC50 in the series with A549 cells [1] (A549 cells) is 6.86 ± 0.71 µM; in the series with A549 cells [1] (Homo sapiens, A549, A549 cells), < 10 µM; in [2], 15.2 ± 1.62 µM. Besides, the “percentage of EdU-positive cells” value in the series on A549 cells [3] (A549, 3.13 μM) amounted to 67.66 ± 4.51%; in the series on A549 cells [3] (A549, 6.25 μM) it was 56.33 ± 4.50%; in the series with A549 cells [3] (A549, 12.5 μM), 34.01 ± 4.58%. Further, the “percentage of G0/G1 phase cells” value in the series with A549 cells [4] (A549, 3.13 μM) came out at 76.42%; in the series on A549 cells [4] (A549, 6.25 μM), 70.16%; with A549 cells [4] (A549, 12.5 μM), 50.11%. Besides, the “percentage of S phase cells” value with A549 cells [4] (A549, 3.13 μM) is given as 11.73%; in the series with A549 cells [4] (A549, 6.25 μM) it was 15.31%; in the series with A549 cells [4] (A549, 12.5 μM), 22.81%. Besides, the “percentage of G2/M phase cells” value in the series on A549 cells [4] (A549, 3.13 μM) was 11.85 ± 1.26% and 11.85%; in the series with A549 cells [4] (A549, 6.25 μM) it was 14.53 ± 1.75% and 14.53%; with A549 cells [4] (A549, 12.5 μM) it was 27.08 ± 2.65% and 27.08%. Further, the “migration rate (wound healing)” value in the series on A549 cells [5] (A549, 3.13 µM) was 31.10 ± 2.92%; in the series on A549 cells [5] (A549, 6.25 µM), 15.23 ± 1.81%; in the series on A549 cells [5] (A549, 12.5 µM), 11.01 ± 1.81%. Besides, the “migrated cell numbers (transwell)” value turned out to be 72.09 ± 4.65% in the series on A549 cells [6] (A549, 3.13 µM); 29.45 ± 2.92% with A549 cells [6] (A549, 6.25 µM); 10.19 ± 1.25% in the series with A549 cells [6] (A549, 12.5 µM). Further, the “apoptosis rate (Annexin V+/PI+ and Annexin V+/PI−)” value in the series with A549 cells [7] (A549, 3.13 µM) was determined as 2.57 ± 0.53%; with A549 cells [7] (A549, 6.25 µM), 12.25 ± 2.21%; in the series with A549 cells [7] (A549, 12.5 µM), 49.79 ± 8.54%. In addition, in the series on Akt, the “expression ratio of p-Akt/Akt” value was “significantly suppressed”. Moreover, the “expression ratio of p-MEK/MEK” value in the series with MEK1/2 is on record as “significantly suppressed”. In addition, the “expression ratio of p-ERK/ERK” value in the series on ERK1/2 is on record as “significantly suppressed”. In addition, the Bcl-2/Bax ratio result in the series with Bcl-2 is recorded as “reduced”. Besides, in the series with Bcl-2, the Bcl-2 protein levels entry is on record as “significantly decreased”. Also, in the series with Bax, the Bax protein levels result was “increased”.

As to `COc1cc(O)c(-c2c(O)cc3c(c2OC)-c2ccc(O)c(Cc4ccc(O)cc4)c2CC3)c2c1-c1ccc(O)cc1CC2` [Compound 2, 4,4′-dimethoxy-8′-(p-hydroxybenzyl)-9,9′,10,10′-tetrahydro-[1,3′-biphenanthrene]-2,2′,7,7′-tetraol], the IC50 in the series with A549 cells [1] (A549 cells) is 8.75 ± 0.61 µM; with A549 cells [1] (Homo sapiens, A549, A549 cells) it was < 10 µM.

In the case of `COc1cc(O)c(-c2c(O)cc3c(c2OC)-c2ccc(O)cc2CC3)c2c1-c1ccc(O)cc1CC2` [Compound 3, blestrianol A], in the series with A549 cells [1] (Homo sapiens, A549, A549 cells), the IC50 turned out to be 10.5 ± 2.55 µM.

For `COc1cc(O)cc2c1-c1cc(-c3c(O)cc(OC)c4c3CCc3cc(O)ccc3-4)c(O)cc1CC2` [Compound 4, gymconopin C], the IC50 in the series on A549 cells [1] (A549 cells) is 9.91 ± 0.68 µM; in the series on A549 cells [1] (Homo sapiens, A549, A549 cells), < 10 µM.

For `COc1c(O)ccc2c1ccc1c(-c3c(O)cc(OC)c4c3ccc3cc(O)ccc34)c(O)cc(OC)c12` [Compound 5, bleformin G], the IC50 with A549 cells [1] (Homo sapiens, A549, A549 cells) was > 100 µM.

In the case of `COc1cc(O)c(-c2c(O)cc(OC)c3c2ccc2cc(O)ccc23)c2ccc3cc(O)ccc3c12` [Compound 6, blestriarene C], the IC50 is 9.45 ± 0.52 µM in the series with A549 cells [1] (A549 cells) and < 10 µM in the series on A549 cells [1] (Homo sapiens, A549, A549 cells).

Consider `COc1cc(O)c(Cc2ccc(O)cc2)c2c1-c1ccc(Oc3c(O)cc(OC)c4c3CCc3cc(O)ccc3-4)cc1CC2` [Compound 8, blestanol C], for which the IC50 was 8.62 ± 0.64 µM in the series with A549 cells [1] (A549 cells) and < 10 µM in the series with A549 cells [1] (Homo sapiens, A549, A549 cells).

Take `COc1cc(O)cc2c1-c1ccc(O)cc1CC2` [Compound 9, 2,7-dihydroxy-4-methoxy-9,10-dihydrophenanthrene]: in the series on A549 cells [1] (Homo sapiens, A549, A549 cells), the IC50 came to 51.5 ± 1.87 µM.

As to `COc1cc(O)c(O)c2c1-c1ccc(O)cc1CC2` [Compound 10, 4-methoxy-9,10-dihydrophenanthrene-1,2,7-triol], the IC50 in the series on A549 cells [1] (Homo sapiens, A549, A549 cells) amounted to 16.3 ± 2.22 µM.

On to `COc1cc(O)c(Cc2ccc(O)cc2)c2c1-c1ccc(O)cc1CC2` [Compound 12, 1-(p-hydroxybenzyl)-4-methoxy-9,10-dihydrophenanthrene-2,7-diol], for which the IC50 in the series on A549 cells [1] (Homo sapiens, A549, A549 cells) worked out at 33.3 ± 0.49 µM.

`COc1ccc(Cc2c(O)cc(O)c3c2CCc2cc(OC)ccc2-3)cc1` [Compound 13, pleioanthrenin]: the IC50 with A549 cells [1] (A549 cells) was 9.52 ± 0.47 µM; with A549 cells [1] (Homo sapiens, A549, A549 cells) it was < 10 µM.

As to `COc1cc(O)c(Cc2ccc(O)cc2)c2c1-c1cc(Cc3ccc(O)cc3)c(O)cc1CC2` [Compound 14, 1,6-bis(p-hydroxybenzyl)-4-methoxy-9,10-dihydrophenanthrene-2,7-diol], the IC50 with A549 cells [1] (Homo sapiens, A549, A549 cells) turned out to be 12 ± 0.79 µM.

With `COc1cc2ccc3cc(O)ccc3c2c(OC)c1O` [Compound 16, 3,7-dihydroxy-2,4-dimethoxyphenanthrene], the IC50 in the series on A549 cells [1] (Homo sapiens, A549, A549 cells) is 63.8 ± 4.67 µM.

Turning to `COc1cc(O)c(Cc2ccc(O)cc2)c2ccc3cc(O)ccc3c12` [Compound 17, 1-(p-hydroxybenzyl)-4-methoxyphenanthrene-2,7-diol], the IC50 in the series on A549 cells [1] (Homo sapiens, A549, A549 cells) turned out to be 32.6 ± 2.33 µM.
